Patent publication US9416133B2, “Hydropyrrolopyrrole derivatives for use as fatty acid synthase inhibitors” (MERCK PATENT GMBH, priority 2012, dated 2016)

Target: T1, human recombinant full-length fatty acid synthase (FASN) (Homo sapiens, UniProt P49327)
T1 construct: 40 nM human recombinant full-length fatty acid synthase (produced in-house in SF9 cells); made in house; host or cells: SF9 cells
Test: Biochemical activity testing of human fatty acid synthase FASN (NADPH fluorescence intensity enzyme assay)
Conditions: inhibition of NADPH conversion
Source text: Biochemical Activity Testing of Human Fatty Acid Synthase FASN
Fatty acid synthase FASN is a multifunctional enzyme with seven catalytic activities thereby synthesising long chain fatty acids especially palmitoyl-CoA in the presence of co-factor NADPH starting from the substrates acetyl-CoA and malonyl-CoA. The reductive synthesis is realized by the oxidation of NADPH to NADP. Since NADPH has a high fluorescence intensity quantum yield compared to NADP with excitation at 340 nm and emission at 460 nm, the reaction can be monitored via the decrease in fluorescence intensity. The biochemical FASN activity testing was performed as 384 well two-time-point kinetic fluorescence intensity assay format in Greiner low volume medium binding 384-well black microtiter plates in a total assay volume of 8 μl and was used for high throughput screen. In each well 3 μl 40 nM human recombinant full-length fatty acid synthase (produced in-house in SF9 cells) were dispensed in the following assay buffer: 50 mM potassium phosphate buffer pH 7.0, 0.005% (w/v) BSA, 2 mM Glutathione, 0.02% Tween-20. Then 2 μl of 200 μM NADPH in assay buffer were added, followed by the addition of the test compounds in 10 dilution concentrations starting with 30 μM (final concentration) to get a final DMSO content of 1% (v/v). The mixture was incubated for at least 15 min at room temperature. After the pre-incubation the enzymatic reaction was started by the addition of 2 μl substrate solution (80 μM acetyl-CoA, 240 μM malonyl-CoA). A first fluorescence intensity measurement (time point one) was performed with an Envision multimode reader (Perkin Elmer LAS Germany GmbH) at excitation wavelength 340 nm (lamp mode) and emission wavelength 460 nm. The reaction was incubated for 30 minutes at room temperature. After this the fluorescence intensity was measured again in the Envision using the same parameters as described above (second time point measurement). The data were analysed by subtracting the first time point measurement value from the second time point measurement value (after the enzymatic reaction). The differences of the emission signals were determined. These reflect directly the conversion rate of NADPH. The full value used was the inhibitor-free reaction. A pharmacological zero value was used like GSK837149A (Sigma-Aldrich) in a final concentration of 5-10 μM. The inhibitory values (IC50) were determined using either the program Symyx Assay Explorer® or Condosseo® from GeneData.

T1 sequence (P49327 whole entry): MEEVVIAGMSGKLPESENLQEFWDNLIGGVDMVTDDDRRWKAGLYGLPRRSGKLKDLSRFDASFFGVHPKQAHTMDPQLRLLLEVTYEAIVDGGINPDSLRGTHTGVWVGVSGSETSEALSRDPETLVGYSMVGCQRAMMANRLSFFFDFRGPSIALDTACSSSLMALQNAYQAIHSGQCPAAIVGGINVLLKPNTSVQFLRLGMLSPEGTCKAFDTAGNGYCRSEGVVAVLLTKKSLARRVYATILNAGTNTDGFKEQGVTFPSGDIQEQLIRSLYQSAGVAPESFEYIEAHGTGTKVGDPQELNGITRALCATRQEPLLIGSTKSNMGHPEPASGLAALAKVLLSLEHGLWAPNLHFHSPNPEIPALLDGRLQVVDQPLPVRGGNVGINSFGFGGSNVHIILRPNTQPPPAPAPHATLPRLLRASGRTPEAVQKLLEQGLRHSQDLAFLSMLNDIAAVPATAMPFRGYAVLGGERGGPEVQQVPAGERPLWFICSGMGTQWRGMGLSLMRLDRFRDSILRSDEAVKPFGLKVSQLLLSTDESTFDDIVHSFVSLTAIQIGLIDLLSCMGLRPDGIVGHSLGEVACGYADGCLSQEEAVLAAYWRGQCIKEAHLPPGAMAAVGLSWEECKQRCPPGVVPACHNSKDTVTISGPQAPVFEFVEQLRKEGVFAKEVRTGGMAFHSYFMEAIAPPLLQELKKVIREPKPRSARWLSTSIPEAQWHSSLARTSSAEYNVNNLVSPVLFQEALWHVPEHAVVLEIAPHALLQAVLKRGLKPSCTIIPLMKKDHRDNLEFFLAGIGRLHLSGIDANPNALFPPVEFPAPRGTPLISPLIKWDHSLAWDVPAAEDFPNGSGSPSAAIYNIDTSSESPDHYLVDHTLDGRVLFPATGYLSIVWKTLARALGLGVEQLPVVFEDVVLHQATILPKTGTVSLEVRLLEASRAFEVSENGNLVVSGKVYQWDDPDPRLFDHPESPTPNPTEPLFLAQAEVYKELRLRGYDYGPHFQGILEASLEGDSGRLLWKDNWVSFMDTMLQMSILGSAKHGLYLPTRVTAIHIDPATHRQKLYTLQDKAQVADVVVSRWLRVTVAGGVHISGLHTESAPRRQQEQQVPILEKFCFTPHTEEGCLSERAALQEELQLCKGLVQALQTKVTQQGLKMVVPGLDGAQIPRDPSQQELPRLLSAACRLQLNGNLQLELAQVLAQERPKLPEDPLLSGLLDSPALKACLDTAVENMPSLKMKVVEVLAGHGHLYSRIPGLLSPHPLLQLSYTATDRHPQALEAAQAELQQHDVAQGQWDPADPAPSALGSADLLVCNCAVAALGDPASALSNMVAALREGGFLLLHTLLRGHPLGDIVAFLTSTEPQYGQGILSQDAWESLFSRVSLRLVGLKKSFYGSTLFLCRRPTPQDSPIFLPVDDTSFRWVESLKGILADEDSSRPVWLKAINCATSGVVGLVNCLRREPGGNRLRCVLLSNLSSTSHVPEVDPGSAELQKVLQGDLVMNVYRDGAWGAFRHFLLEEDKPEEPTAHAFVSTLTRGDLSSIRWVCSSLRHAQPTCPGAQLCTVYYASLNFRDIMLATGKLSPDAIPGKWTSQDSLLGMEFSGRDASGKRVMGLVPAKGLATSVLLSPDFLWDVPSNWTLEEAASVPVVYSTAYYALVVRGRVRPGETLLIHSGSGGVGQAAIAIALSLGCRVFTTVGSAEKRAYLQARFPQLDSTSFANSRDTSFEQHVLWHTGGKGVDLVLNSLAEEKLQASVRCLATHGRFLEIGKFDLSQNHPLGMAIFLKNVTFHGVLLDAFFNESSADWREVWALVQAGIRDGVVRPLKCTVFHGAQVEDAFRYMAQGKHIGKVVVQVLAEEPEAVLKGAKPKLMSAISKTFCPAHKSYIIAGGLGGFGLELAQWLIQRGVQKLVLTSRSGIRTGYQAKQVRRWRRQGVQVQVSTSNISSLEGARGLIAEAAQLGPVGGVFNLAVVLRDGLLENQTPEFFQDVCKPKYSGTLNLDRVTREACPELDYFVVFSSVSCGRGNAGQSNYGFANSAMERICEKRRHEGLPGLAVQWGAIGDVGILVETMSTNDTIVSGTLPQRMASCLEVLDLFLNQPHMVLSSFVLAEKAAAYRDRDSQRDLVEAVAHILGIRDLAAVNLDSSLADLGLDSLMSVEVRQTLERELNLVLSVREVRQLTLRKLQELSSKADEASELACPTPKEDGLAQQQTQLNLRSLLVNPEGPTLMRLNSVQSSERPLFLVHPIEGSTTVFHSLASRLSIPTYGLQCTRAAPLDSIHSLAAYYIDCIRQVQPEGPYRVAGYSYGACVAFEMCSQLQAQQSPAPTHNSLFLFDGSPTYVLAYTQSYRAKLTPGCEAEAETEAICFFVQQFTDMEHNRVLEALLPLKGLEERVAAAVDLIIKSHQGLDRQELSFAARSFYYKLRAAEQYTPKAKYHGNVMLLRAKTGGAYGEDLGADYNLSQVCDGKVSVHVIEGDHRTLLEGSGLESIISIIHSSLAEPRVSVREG

SMILES	IC50 [µM]
CC(=O)N1CC2CN(C(=O)c3ccc(-c4ccc5ccoc5c4)cc3)CC2C1 (centres unmarked) [Compound A6, 1-[5-(4-benzofuran-6-yl-benzoyl)-hexahydro-pyrrolo[3,4-c]pyrrol-2-yl]-ethanone]	3 to 50
CC(=O)N1CC2CN(C(=O)c3ccc(-c4ccc5cc[nH]c5c4)cc3)CC2C1 (centres unmarked) [Compound A7, 1-{5-[4-(1H-indol-6-yl)-benzoyl]-hexahydro-pyrrolo[3,4-c]pyrrol-2-yl}-ethanone]	0.3 to 3
O=C(c1ccc(-c2ccc3cnccc3c2)cc1)N1CC2CN(C(=O)C3CC3)CC2C1 (centres unmarked) [Compound A8, (5-cyclopropanecarbonyl-hexahydro-pyrrolo[3,4-c]pyrrol-2-yl)-(4-isoquinolin-6-yl-phenyl)-methanone]	0.3 to 3

Other lines, results leading:

IC50 [µM]	SMILES
< 0.3	CCC(=O)N1CC2CN(C(=O)c3ccc(-c4ccc5cnccc5c4)cc3)CC2C1 (centres unmarked) [Compound A1, 1-[5-(4-isoquinolin-6-yl-benzoyl)-hexahydro-pyrrolo[3,4-c]pyrrol-2-yl]-propan-1-one]
0.3 to 3	CCC(=O)N1CC2CN(C(=O)c3ccc(-c4ccc5ccoc5c4)cc3)CC2C1 (centres unmarked) [Compound A2, 1-[5-(4-benzofuran-6-yl-benzoyl)-hexahydro-pyrrolo[3,4-c]pyrrol-2-yl]-propan-1-one]
0.3 to 3	CC(=O)N1CC2CN(C(=O)c3ccc(-c4ccc5cnccc5c4)cc3)CC2C1 (centres unmarked) [Compound A3, 1-[5-(4-isoquinolin-6-yl-benzoyl)-hexahydro-pyrrolo[3,4-c]pyrrol-2-yl]-ethanone]
0.3 to 3	CCC(=O)N1CC2CN(C(=O)c3ccc(-c4ccc5cc[nH]c5c4)cc3)CC2C1 (centres unmarked) [Compound A4, 1-{5-[4-(1H-indol-6-yl)-benzoyl]-hexahydro-pyrrolo[3,4-c]pyrrol-2-yl}-propan-1-one]
0.3 to 3	O=C(c1ccc(-c2ccc3cc[nH]c3c2)cc1)N1CC2CN(C(=O)C3CC3)CC2C1 (centres unmarked) [Compound A5, (5-cyclopropanecarbonyl-hexahydro-pyrrolo[3,4-c]pyrrol-2-yl)-[4-(1H-indol-6-yl)-phenyl]-methanone]
